According to publication PMC9598926, “Design and Synthesis of (Z)-5-(Substituted benzylidene)-3-cyclohexyl-2-thioxothiazolidin-4-one Analogues as Anti-Tyrosinase and Antioxidant Compounds: In Vitro and In Silico Insights” (Antioxidants, 2022):

How the values were obtained:
[1] = Peroxynitrite (ONOO−) scavenging activity assay (DHR 123, SIN-1); settings: SIN–1 10 µM; 5, 10, 20 µM
Method: 2.14. Peroxynitrite (ONOO^−) Scavenging Activity Assay
Peroxynitrite-scavenging activities were determined as described by Kooy et al. with modification. This method monitors the fluorescence of rhodamine 123, which is formed rapidly when non-fluorescent DHR 123 (dihydrorhodamine 123) (Molecular Probes, Eugene, OR, USA) in the presence of peroxynitrite. The rhodamine buffer solution (pH 7.4) included of 50 mM sodium phosphate, 90 mM sodium chloride, 5 mM potassium chloride, and 100 µM DTPA. The final concentration of DHR 123 was 5 µM. In this assay, the buffer solution was prepared prior to use and then stood on ice. Test compounds (10 µL, final concentrations: 5, 10, and 20 µM) dissolved in DMSO and added to 10 µL SIN-1 (10 µM) and 180 µL rhodamine buffer solution in the wells of a black 96-well plate. Fluorescence intensities of oxidized DHR 123 were measured using a fluorescence plate reader (Berthold Advances GmbH & Co., Bad Wildbad, Germany) with an excitation and emission wavelengths of 485 and 535 nm, respectively. Peroxynitrite scavenging activity was calculated after subtracting background fluorescence from final fluorescence intensity. Results are expressed as means ± standard deviation (SD), and L-penicillamine was used as a positive control.
Several RNS (reactive nitrogen species), including peroxynitrite (ONOO^–) and nitric oxide, are known to be involved in the induction of the melanogenesis. Therefore, we investigated the effects of analogs 1–8 on peroxynitrite scavenging activity using DHR123 (dihydrorhodamine) as a ROS indicator and SIN–1 as an RNS generator. Peroxynitrite generated by SIN–1 oxidizes DHR123 to rhodamine 123, a fluorescent compound. Thus, the effects of analogs on peroxynitrite scavenging ability were determined by measuring rhodamine 123 fluorescence.

[2] = target: mushroom tyrosinase; assay: Mushroom tyrosinase activity assay (L-tyrosine as substrate); format: biochemical; settings: mushroom tyrosinase, means ± SEMs of triplicate determinations
Method: 2.2. […] In brief, 20 µL of an aqueous mushroom tyrosinase solution (1000 units/mL) and 170 µL of a substrate mixture containing 345 µM of L-tyrosine and 17.2 mM of sodium phosphate buffer (pH 6.5) were added to wells of a 96-well microplate. […] Amounts of dopachrome produced were assessed by measuring optical densities at 475 nm using a microplate reader (VersaMax®, Molecular Devices, Sunnyvale, CA, USA). […] Experiments were independently conducted three times.

[3] = ROS scavenging activity assay (DCFH-DA/esterase, SIN-1); settings: SIN–1 10 µM; 5, 10, 20 µM
Method: 2.13. ROS Scavenging Activity Assay
The ROS scavenging activities of analogs 1–8 and Troloxwere determined as previously described by Ali et al. and Lebel and Bondy. Briefly, 2.5 mM DCFH-DA (2’,7’-dichlorodihydrofluorescein diacetate) (Molecular Probes, Eugene, OR, USA) solution was mixed with esterase (1.5 units/mL) in 50 mM phosphate buffer (pH 7.4), held for 30 min at 37 °C, and keep on ice in the dark until required. Tested compounds (10 µL; final concentrations: 5, 10, and 20 µM) dissolved in DMSO and SIN-1 (3-morpholinosydnonimine) (10 µM) and 180 µL of phosphate buffer in the wells of a black 96-well plate for 30 min. The 50 µL of DCFH-DA-esterase mixture (20 µM) was added. Fluorescence intensities of oxidized DCFH (DCF or 2′,7′-dichlorofluorescein) were measured using a microplate reader (Berthold Advances GmbH & Co., Bad Wildbad, Germany) with excitation and emission wavelengths of 485 and 530 nm, respectively. Trolox was used as the reference control.
Since it has been reported that reactive oxygen species (ROS) are concerned in the regulation of melanogenesis, we examined the ROS scavenging activities of analogs 1–8 using DCFH-DA (2′,7′-dichlorodihydrofluorescein diacetate) and esterase. Trolox and SIN–1 (3-morpholinosydnonimine) were used as the positive control and a ROS generator, respectively. Hydrolysis of DCFA-DA by esterase generates DCFH (2′,7′-dichlorodihydrofluorescein), which reacts with ROS generated by SIN–1 to produce the fluorescent compound DCF (2′,7′-dichlorofluorescein). Thus, ROS scavenging activities of analogs were assessed by measuring DCF fluorescence. […] Test samples including Trolox were treated at three different concentrations (5, 10, or 20 µM).

[4] = ABTS cation radical scavenging activity assay; settings: test sample 100 µM, 2 min in the dark
Method: 2.12. ABTS Cation Radical Scavenging Activity Assay
The free radical scavenging activities of analogs 1–8 and Trolox were determined using an ABTS radical cation decolorization assay (SEJIN CI Co., Seoul, Korea), as previously described with minor modification. Trolox was used as the positive control. ABTS radicals were produced by adding 10 mL of 7 mM ABTS in distilled water to 10 mL of 2.45 mM aqueous potassium persulfate solution. The mixture was kept in the dark for 12–16 h at RT until the reaction was complete and absorbance had stabilized. The prepared free radical solution was then diluted with methyl alcohol so that the optical density at 734 nm was 0.70 ± 0.02. Test samples (10 µL, final concentration at 100 µM) dissolved in EtOH/DMSO (9:1 v/v) were added to the diluted free radical solution (90 µL) in a 96-well plate. After standing at RT for 2 min in the dark, well absorbances were measured at 734 nm, and ABTS radical scavenging activities were calculated using the following formula:ABTS free radical scavenging activity (%) = (Ac − As) × 100/Ac(2) where Ac indicates the absorbance of the non-treated control, and As indicates the absorbances of test samples. Experiments were conducted independently 3 times.
The ABTS (2,2′-azino-bis(3-ethylbenzothiazoline-6-sulfonic acid)) cation radical scavenging assay is also commonly used to evaluate antioxidant effects. ABTS is converted to the ABTS radical cation by the transfer of one electron to potassium persulfate. Trolox was used as the positive control, and assays were performed at a test sample (analogs 1–8 and Trolox) concentration of 100 µM. The ABTS radical solution obtained by a reaction of ABTS with potassium persulfate was mixed with test samples and left in the dark for 2 min. ABTS radical scavenging abilities were evaluated by measuring absorbances at 734 nm. […] On the other hand, analog 1 with a 4-hydroxyphenyl group, and analogs 7 and 8 with bromo substituents on the β-phenyl ring weakly scavenged the ABTS radical (16.6–24.8% scavenging). […] Furthermore, the results for ABTS and DPPH radical scavenging activities were similar.

[5] = DPPH radical scavenging activity assay; settings: test sample 500 µM, DPPH 0.18 mM, 30 min in the dark
Method: 2.11. DPPH Radical Scavenging Activity Assay
The DPPH radical scavenging activities of analogs 1–8 were investigated as previously described with minor modification. L-Ascorbic acid was used as a positive control. In brief, 20 µL of analogs (5 mM) in DMSO or 5 mM L-ascorbic acid in distilled water were mixed with 180 µL of 0.2 mM DPPH in methanol in a 96-well microplate. After the microplate had been stored in the dark for 30 min, optical densities (ODs) were measured at 517 nm using a microplate reader (VersaMax®, Molecular Devices, Sunnyvale, CA, USA). DPPH radical scavenging activities were determined using the following formula:DPPH radical scavenging activity (%) = 100 × (Ac − As)/Ac(1) where Ac indicates the optical density of the non-treated control and As indicates the optical density of test sample. Experiments were conducted independently 3 times.
There is a possibility that compounds with antioxidant properties inhibit the oxidations of tyrosinase substrates, such as L-tyrosine and L-dopa, without interacting with the tyrosinase. Melanin production requires many oxidative processes, including the conversion of L-tyrosine to dopaquinone via L-dopa. Therefore, compounds with antioxidant activity have the potential to inhibit melanogenesis. DPPH (2,2-diphenyl-1-picrylhydrazyl) contains a free radical, and DPPH assays are commonly used to assess antioxidant activity. In this experiment, L-ascorbic acid (an antioxidant) was used as a positive control. The assay was conducted at a test sample and L-ascorbic acid concentration of 500 µM and a DPPH concentration of 0.18 mM. After standing test sample/DPPH mixtures for 30 min in the dark, optical densities were measured to evaluate radical scavenging activities.

[6] = system: B16F10 cells; assay: Melanin content analysis in α–MSH plus IBMX stimulated B16F10 cells; format: cell-based, murine; settings: α–MSH/IBMX stimulated (3.5-fold), 20 µM, 72 h
Method: 2.10. Melanin Content Analysis Melanin content assays were performed to determine the effects of analog 3 on cellular melanin formation, as previously described with minor modification. […] Briefly, cultured B16F10 cells were seeded in 6-well culture plates at 1 × 10^4 cells/well and incubated for 12 h under culture conditions to allow them to adhere to well bottoms. […] Cells were then washed twice with PBS and detached from wells by incubation with Trypsin/EDTA. After centrifugation, detached cell pellets were dissolved in 1N–NaOH solution (100 µL), incubated for 1 h at 60 °C, and mixed to solubilize melanin released by cells. The ability of analog 3 to inhibit melanin production was determined by measuring well optical densities (ODs) at 405 nm using a microplate reader (VersaMax®, Molecular Devices, Sunnyvale, CA, USA). Melanin contents were calculated by dividing the ODs of samples by the control OD. Experiments were conducted independently 3 times. […] Thus, B16F10 cells were treated with analog 3 (0, 5, 10, or 20 µM) for 1 h and then stimulated with α–MSH (1 µM) plus IBMX (200 µM) for 72 h. Melanin contents were assessed by measuring optical densities at 405 nm.

| SMILES | IC50 [2] [µM] | ABTS radical scavenging activity [4] | further results |
| --- | --- | --- | --- |
| CC(C)(S)C(N)C(=O)O (stereo in doubt) [penicillamine, L-penicillamine, reference compound] |  |  | peroxynitrite scavenging [1]: significantly and concentration-dependently reduced |
| O=C1/C(=C/c2ccc(O)cc2)SC(=S)N1C1CCCCC1 [Analog 1, (Z)-3-Cyclohexyl-5-(4-hydroxybenzylidene)-2-thioxothiazolidin-4-one] | 65.4 ± 7.82 | 16.6–24.8% | ROS scavenging [3]: significantly and concentration-dependently scavenged ROS |
| COc1cc(/C=C2\SC(=S)N(C3CCCCC3)C2=O)ccc1O [Analog 4, (Z)-3-Cyclohexyl-5-(4-hydroxy-3-methoxybenzylidene)-2-thioxothiazolidin-4-one] | > 200 | 57.7% | DPPH radical scavenging activity [5]: 72% |
| Cc1c(C)c2c(c(C)c1O)CCC(C)(C(=O)O)O2 (stereo not shown) [Trolox, reference compound] |  | 79.8% | ROS scavenging [3]: significantly and concentration-dependently scavenged ROS |
| O=c1cc(CO)occ1O [kojic acid, reference compound] |  |  | melanin contents versus non-treated controls [6]: 3.0 fold |

Now from value to molecule, other results behind:

| IC50 [2] [µM] | SMILES | ABTS radical scavenging activity [4] | further results |
| --- | --- | --- | --- |
| 55 ± 11.9 | COc1ccc(/C=C2\SC(=S)N(C3CCCCC3)C2=O)cc1O [Analog 5, (Z)-3-Cyclohexyl-5-(3-hydroxy-4-methoxybenzylidene)-2-thioxothiazolidin-4-one] | 43.5% |  |
| > 200 | COc1cc(/C=C2\SC(=S)N(C3CCCCC3)C2=O)cc(OC)c1O [Analog 6, (Z)-3-Cyclohexyl-5-(4-hydroxy-3,5-dimethoxybenzylidene)-2-thioxothiazolidin-4-one] | 46.9% | peroxynitrite scavenging compared with penicillamine [1]: more potently than penicillamine |
| 66.2 ± 9.44 | O=C1/C(=C/c2ccc(O)c(Br)c2)SC(=S)N1C1CCCCC1 [Analog 7, (Z)-5-(3-Bromo-4-hydroxybenzylidene)-3-cyclohexyl-2-thioxothiazolidin-4-one] | 16.6–24.8% |  |
| > 200 | O=C1/C(=C/c2cc(Br)c(O)c(Br)c2)SC(=S)N1C1CCCCC1 [Analog 8, (Z)-3-Cyclohexyl-5-(3,5-dibromo-4-hydroxybenzylidene)-2-thioxothiazolidin-4-one] | 16.6–24.8% |  |
